Key:
[1] = system: Eimeria tenella; test: Anticoccidial activity against Eimeria tenella infected in poultry bird assessed as reduction of […] burden at 50 ppm, po after 7 days; format: functional; set-up: scale not given: the % may be the effect or the level left
[2] = Inhibition of Eimeria tenella PKG
[3] = system: Eimeria acervulina; test: Anticoccidial activity against Eimeria acervulina infected in poultry bird assessed as reduction of […] burden at 50 ppm, po after 7 days; format: functional; set-up: scale not given: the % may be the effect or the level left
[4] = system: Eimeria mitis; test: Anticoccidial activity against Eimeria mitis infected in poultry bird assessed as reduction of […] burden at 50 ppm, po after 7 days; format: functional; set-up: scale not given: the % may be the effect or the level left
[5] = system: Eimeria maxima; test: Anticoccidial activity against Eimeria maxima infected in poultry bird assessed as reduction of […] burden at 50 ppm, po after 7 days; format: functional; set-up: scale not given: the % may be the effect or the level left
[6] = system: Eimeria acervulina; test: Anticoccidial activity against Eimeria acervulina infected in poultry bird assessed as reduction of […] burden at 25 ppm, po after 7 days; format: functional; set-up: scale not given: the % may be the effect or the level left
[7] = system: Eimeria tenella; test: Anticoccidial activity against Eimeria tenella infected in poultry bird assessed as reduction of […] burden at 25 ppm, po after 7 days; format: functional; set-up: scale not given: the % may be the effect or the level left
[8] = system: Eimeria maxima; test: Anticoccidial activity against Eimeria maxima infected in poultry bird assessed as reduction of […] burden at 25 ppm, po after 7 days; format: functional; set-up: scale not given: the % may be the effect or the level left
[9] = system: Eimeria mitis; test: Anticoccidial activity against Eimeria mitis infected in poultry bird assessed as reduction of […] burden at 25 ppm, po after 7 days; format: functional; set-up: scale not given: the % may be the effect or the level left
[10] = system: Eimeria tenella; test: Anticoccidial activity against Eimeria tenella infected in poultry bird assessed as reduction of […] burden at 12.5 ppm, po after 7 days; format: functional; set-up: scale not given: the % may be the effect or the level left
[11] = system: Eimeria acervulina; test: Anticoccidial activity against Eimeria acervulina infected in poultry bird assessed as reduction of […] burden at 12.5 ppm, po after 7 days; format: functional; set-up: scale not given: the % may be the effect or the level left
[12] = system: Eimeria maxima; test: Anticoccidial activity against Eimeria maxima infected in poultry bird assessed as reduction of […] burden at 12.5 ppm, po after 7 days; format: functional; set-up: scale not given: the % may be the effect or the level left
[13] = system: Eimeria mitis; test: Anticoccidial activity against Eimeria mitis infected in poultry bird assessed as reduction of […] burden at 12.5 ppm, po after 7 days; format: functional; set-up: scale not given: the % may be the effect or the level left
[14] = system: Eimeria tenella; test: Anticoccidial activity against Eimeria tenella infected in poultry bird assessed as reduction of […] burden at 6.25 ppm, po after 7 days; format: functional; set-up: scale not given: the % may be the effect or the level left
[15] = system: Eimeria acervulina; test: Anticoccidial activity against Eimeria acervulina infected in poultry bird assessed as reduction of […] burden at 6.25 ppm, po after 7 days; format: functional; set-up: scale not given: the % may be the effect or the level left
[16] = system: Eimeria maxima; test: Anticoccidial activity against Eimeria maxima infected in poultry bird assessed as reduction of […] burden at 6.25 ppm, po after 7 days; format: functional; set-up: scale not given: the % may be the effect or the level left
[17] = system: Eimeria mitis; test: Anticoccidial activity against Eimeria mitis infected in poultry bird assessed as reduction of […] burden at 6.25 ppm, po after 7 days; format: functional; set-up: scale not given: the % may be the effect or the level left

Row | SMILES | IC50 [2] [nM] | Activity [1] [%] | Activity [3] [%] | Activity [4] [%] | Activity [5] [%] | other results
1 | CN1CCN(C(=O)c2cn3c(-c4ccncc4)c(-c4ccc(F)cc4)nc3s2)CC1 | 100 |  |  |  |  | 
2 | Cc1c(CN2CCN(C)CC2)sc2nc(-c3ccc(F)cc3)c(-c3ccncc3)n12 | > 100 |  |  |  |  | 
3 | CN1CCN(CCc2cn3c(-c4ccncc4)c(-c4ccc(F)cc4)nc3s2)CC1 | 2.5 | 99 | 80 | <50 | 50 | 
4 | CN1CCN(Cc2cn3c(-c4ccncc4)c(-c4ccc(F)cc4)nc3s2)CC1 | 0.7 | 99 | 100 | 80 | <50 | 

Further lines, with some results ahead:

Row | IC50 [2] [nM] | SMILES | Activity [1] [%] | Activity [3] [%] | Activity [4] [%] | Activity [5] [%] | other results
5 | 22 | CN(C)Cc1cn2c(-c3ccncc3)c(-c3ccc(F)cc3)nc2s1 | 80 | 50 | <50 | <50 | 
6 | 10.1 | CN(C)CCc1cn2c(-c3ccncc3)c(-c3ccc(F)cc3)nc2s1 | 50 | 50 | 99 | <50 | 
7 | 0.9 | CN(C)Cc1cn2c(-c3ccnc(N)n3)c(-c3ccc(F)cc3)nc2s1 | 99 | 100 | 50 | <50 | 
8 | 1.04 | CN1CCN(Cc2cn3c(-c4ccncn4)c(-c4ccc(F)cc4)nc3s2)CC1 | 100 | 99 | 100 | 100 | 
9 | 0.08 | CN1CCN(Cc2cn3c(-c4ccnc(N)n4)c(-c4ccc(F)cc4)nc3s2)CC1 | 100 | 100 | 100 | 100 | Activity [6]: 100%; Activity [7]: 100%; Activity [8]: 100%; Activity [9]: 100%; Activity [10]: 100%; Activity [11]: 100%; Activity [12]: 100%; Activity [13]: <50%; Activity [14]: 100%; Activity [15]: 100%; Activity [16]: 100%; Activity [17]: <50%

From ChEMBL document CHEMBL1144218, “Synthesis and biological activity of anticoccidial agents: 5,6-diarylimidazo[2,1-b][1,3]thiazoles” (Bioorg Med Chem Lett, 2008)
